Data on twelve compounds can be found in patent US12539292B2, “BRM targeting compounds and associated methods of use” (Arvinas Operations, Inc., priority 2018, dated 2026).

The structures appear in SMILES notation. Where two headings read alike, the source gives them in different places. Where only a bound is given, the exact number is not on record here.

The target of the test is T1, BRM (Homo sapiens, UniProt P51531).
T1 construct: In-Cell Western Screen of BRM Degradation in SW1573 Cells; endogenous in cells; host or cells: SW1573
T1 sequence (P51531 whole entry): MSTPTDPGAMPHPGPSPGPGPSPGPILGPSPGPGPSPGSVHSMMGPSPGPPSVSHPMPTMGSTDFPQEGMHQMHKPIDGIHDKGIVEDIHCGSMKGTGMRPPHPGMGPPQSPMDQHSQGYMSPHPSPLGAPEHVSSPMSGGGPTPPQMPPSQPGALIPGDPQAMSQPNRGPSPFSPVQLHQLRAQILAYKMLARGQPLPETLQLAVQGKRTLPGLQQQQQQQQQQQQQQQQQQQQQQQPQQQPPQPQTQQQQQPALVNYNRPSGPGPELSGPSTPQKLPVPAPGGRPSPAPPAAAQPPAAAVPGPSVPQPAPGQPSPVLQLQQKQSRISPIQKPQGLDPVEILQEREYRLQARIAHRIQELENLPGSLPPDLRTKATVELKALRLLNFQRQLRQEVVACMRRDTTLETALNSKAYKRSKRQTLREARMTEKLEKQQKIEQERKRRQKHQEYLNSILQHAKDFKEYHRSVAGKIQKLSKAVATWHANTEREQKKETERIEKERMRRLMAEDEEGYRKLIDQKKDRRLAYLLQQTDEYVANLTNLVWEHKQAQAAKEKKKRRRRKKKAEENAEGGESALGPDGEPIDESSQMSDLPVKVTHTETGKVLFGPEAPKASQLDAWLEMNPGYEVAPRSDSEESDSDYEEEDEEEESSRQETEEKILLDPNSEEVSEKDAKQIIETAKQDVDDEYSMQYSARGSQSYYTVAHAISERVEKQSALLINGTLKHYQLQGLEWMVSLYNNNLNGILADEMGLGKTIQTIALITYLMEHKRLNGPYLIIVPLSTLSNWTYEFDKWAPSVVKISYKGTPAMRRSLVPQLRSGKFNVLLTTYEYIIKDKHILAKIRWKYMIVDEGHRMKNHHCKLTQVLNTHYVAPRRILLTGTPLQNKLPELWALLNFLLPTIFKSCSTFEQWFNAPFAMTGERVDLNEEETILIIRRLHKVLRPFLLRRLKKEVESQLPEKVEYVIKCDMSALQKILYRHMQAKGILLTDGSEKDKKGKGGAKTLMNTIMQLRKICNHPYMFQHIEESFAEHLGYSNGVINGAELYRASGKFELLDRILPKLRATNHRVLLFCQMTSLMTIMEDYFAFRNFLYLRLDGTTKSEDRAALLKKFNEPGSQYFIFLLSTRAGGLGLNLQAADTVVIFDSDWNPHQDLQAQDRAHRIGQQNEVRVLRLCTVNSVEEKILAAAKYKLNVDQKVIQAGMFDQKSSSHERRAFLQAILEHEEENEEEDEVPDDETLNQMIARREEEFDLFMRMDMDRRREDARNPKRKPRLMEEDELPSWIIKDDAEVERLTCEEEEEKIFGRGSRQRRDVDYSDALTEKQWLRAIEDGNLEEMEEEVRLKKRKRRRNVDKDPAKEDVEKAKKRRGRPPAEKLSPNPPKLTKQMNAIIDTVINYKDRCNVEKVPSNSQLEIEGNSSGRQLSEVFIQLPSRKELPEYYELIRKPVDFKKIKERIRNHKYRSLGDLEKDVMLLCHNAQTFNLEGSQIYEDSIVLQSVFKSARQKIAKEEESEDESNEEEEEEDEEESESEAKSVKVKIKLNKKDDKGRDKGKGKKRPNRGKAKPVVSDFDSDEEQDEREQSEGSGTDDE
As to the kind of experiment: In-cell Western screen of BRM degradation in SW1573 cells (Dmax and DC50). Format: cell-based. Put shortly: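 After adhering overnight, cells received compound for 18-20 hours. They were then washed in cold DPBS, fixed with 4% PFA for 20 min and permeabilized for 30 min. Blocking and fluorescent secondary staining followed before imaging.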

[1] abbreviates: SW1573, % degraded, when tested at the top concentration of between 0.3 and 10 μM, read-out: BRM Dmax (%).
Where [2] appears, read: target protein degradation, read-out: BRM DC50.
Where [3] appears, read: BRM degradation, SW1573 cells, read-out: DC50.
[4] abbreviates: BRM degradation, SW1573 cells, when tested at the top concentration of between 0.3 and 10 μM, read-out: Dmax (%) (% degraded).
The mark [5] stands for this setting: BRM degradation, SW1573 cells, tested at the top concentration of between 0.3 and 10 μM, read-out: Dmax (%) (% degraded).

`Cc1ncsc1-c1ccc([C@H](C)NC(=O)[C@@H]2C[C@@H](O)CN2C(=O)[C@@H](c2cc(OCCN3CCC(O[C@H]4C[C@H](Nc5cc(N6C7CCC6CN(c6cc(-c8ccccc8O)nnc6N)C7)ccn5)C4)CC3)no2)C(C)C)cc1` [compound 493, (2S,4R)-1-((2R)-2-(3-(2-(4-((1r,3R)-3-((4-(3-(3-amino-6-(2-hydroxyphenyl)pyridazin-4-yl)-3,8-diazabicyclo[3.2.1]octan-8-yl)pyridin-2-yl)amino)cyclobutoxy)piperidin-1-yl)ethoxy)isoxazol-5-yl)-3-methylbutanoyl)-4-hydroxy-N-((S)-1-(4-(4-methylthiazol-5-yl)phenyl)ethyl)pyrrolidine-2-carboxamide]: where the note is “BRM degradation, read-out: BRM DC50”, the DC50 was less than 2.5 nM. Moreover, under setting [1], the Dmax is greater than 75%.
As to `Cc1ncsc1-c1ccc([C@H](C)NC(=O)[C@@H]2C[C@@H](O)CN2C(=O)[C@@H](c2cc(OCCN3CCC(O[C@H]4C[C@H](Oc5cccc(N6C7CCC6CN(c6cc(-c8ccccc8O)nnc6N)C7)c5)C4)CC3)no2)C(C)C)cc1` [compound 462, (2S,4R)-1-((2R)-2-(3-(2-(4-((1r,3R)-3-(3-(3-(3-amino-6-(2-hydroxyphenyl)pyridazin-4-yl)-3,8-diazabicyclo[3.2.1]octan-8-yl)phenoxy)cyclobutoxy)piperidin-1-yl)ethoxy)isoxazol-5-yl)-3-methylbutanoyl)-4-hydroxy-N-((S)-1-(4-(4-methylthiazol-5-yl)phenyl)ethyl)pyrrolidine-2-carboxamide], under setting [1], the Dmax was greater than 75%. The DC50 under setting [2] was less than 2.5 nM.
Turning to `Cc1ncsc1-c1ccc([C@H](C)NC(=O)[C@@H]2C[C@@H](O)CN2C(=O)[C@@H](c2cc(N3CCC(CC4CCN(C[C@H]5C[C@H](Oc6cc(N7C8CCC7CN(c7cc(-c9ccccc9O)nnc7N)C8)ccn6)C5)CC4)CC3)no2)C(C)C)cc1` [compound 473, (2S,4R)-1-((2R)-2-(3-(4-((1-(((1r,3r)-3-((4-(3-(3-amino-6-(2-hydroxyphenyl)pyridazin-4-yl)-3,8-diazabicyclo[3.2.1]octan-8-yl)pyridin-2-yl)oxy)cyclobutyl)methyl)piperidin-4-yl)methyl)piperidin-1-yl)isoxazol-5-yl)-3-methylbutanoyl)-4-hydroxy-N-((S)-1-(4-(4-methylthiazol-5-yl)phenyl)ethyl)pyrrolidine-2-carboxamide], the Dmax under setting [1] is greater than 75%. The DC50 under setting [2] was less than 2.5 nM.
Consider `Cc1ncsc1-c1ccc([C@@H](NC(=O)[C@@H]2C[C@@H](O)CN2C(=O)[C@@H](c2cc(N3CCC(CN4CCC(O[C@H]5C[C@H](Oc6cc(N7C8CCC7CN(c7cc(-c9ccccc9O)nnc7N)C8)ccn6)C5)CC4)CC3)no2)C(C)C)C(F)F)cc1` [compound 572, (2S,4R)-1-((2R)-2-(3-(4-((4-((1r,3r)-3-((4-(3-(3-amino-6-(2-hydroxyphenyl)pyridazin-4-yl)-3,8-diazabicyclo[3.2.1]octan-8-yl)pyridin-2-yl)oxy)cyclobutoxy)piperidin-1-yl)methyl)piperidin-1-yl)isoxazol-5-yl)-3-methylbutanoyl)-N-((R)-2,2-difluoro-1-(4-(4-methylthiazol-5-yl)phenyl)ethyl)-4-hydroxypyrrolidine-2-carboxamide], for which, where the note is “BRM degradation, SW1573 cells, Table 2D, read-out: **Dmax (%) (% degraded)”, the Dmax was greater than 75%. Also, where the note is “BRM degradation, SW1573 cells, Table 2D, read-out: *DC50”, the DC50 was less than 2.5 nM.
On to `COCCOCCOCCOCCOCCOCCOCCOCCOCCOCCOCCOCCOCCOCCOCCOCCOCCOCCOCCOCCOCCOCCOC(=O)CCC(=O)O[C@@H]1C[C@@H](C(=O)N[C@@H](C)c2ccc(-c3scnc3C)cc2)N(C(=O)[C@@H](c2cc(OCCN3CCC(O[C@H]4C[C@H](Oc5cc(N6C7CCC6CN(c6cc(-c8ccccc8O)nnc6N)C7)ccn5)C4)CC3)no2)C(C)C)C1` [compound 460, (3R,5S)-1-((2R)-2-(3-(2-(4-((1r,3R)-3-((4-(3-(3-amino-6-(2-hydroxyphenyl)pyridazin-4-yl)-3,8-diazabicyclo[3.2.1]octan-8-yl)pyridin-2-yl)oxy)cyclobutoxy)piperidin-1-yl)ethoxy)isoxazol-5-yl)-3-methylbutanoyl)-5-(((S)-1-(4-(4-methylthiazol-5-yl)phenyl)ethyl)carbamoyl) pyrrolidin-3-yl (2,5,8,11,14,17,20,23,26,29,32,3 5,38,41,44,47,50,53,56,59,62,65-docosaoxaheptahexacontan-67-yl) succinate], for which the Dmax under setting [1] was greater than 75%. The DC50 under setting [2] was less than 2.5 nM.
As for `Cc1ncsc1-c1ccc([C@H](C)NC(=O)[C@@H]2C[C@@H](O)CN2C(=O)[C@@H](c2cc(N3CCC(CN4CCC(O[C@H]5C[C@@H](N6CCC(C(C)n7cc(-c8cc(-c9ccccc9O)nnc8N)cn7)CC6)C5)CC4)CC3)no2)C(C)C)cc1` (stereo partly drawn) [compound 665, (2S,4R)-1-((2R)-2-(3-(4-((4-((1s,3s)-3-(4-(1-(4-(3-amino-6-(2-hydroxyphenyl)pyridazin-4-yl)-1H-pyrazol-1-yl)ethyl)piperidin-1-yl)cyclobutoxy)piperidin-1-yl)methyl)piperidin-1-yl)isoxazol-5-yl)-3-methylbutanoyl)-4-hydroxy-N-((S)-1-(4-(4-methylthiazol-5-yl)phenyl)ethyl)pyrrolidine-2-carboxamide], the DC50 under setting [3] is less than 2.5 nM. The Dmax (BRM degradation, SW1573 cells, read-out: Dmax (% degraded)) is greater than 75%.
Turning to `Cc1ncsc1-c1ccc([C@H](C)NC(=O)[C@@H]2C[C@@H](O)CN2C(=O)[C@@H](c2cc(OCCN3CCN(CCCCN4CCOC5(CCN(c6cc(-c7ccccc7O)nnc6N)CC5)C4)CC3)no2)C(C)C)cc1` [compound 91, (2S,4R)-1-((R)-2-(3-(2-(4-(4-(9-(3-amino-6-(2-hydroxyphenyl)pyridazin-4-yl)-1-oxa-4,9-diazaspiro[5.5]undecan-4-yl)butyl)piperazin-1-yl)ethoxy)isoxazol-5-yl)-3-methylbutanoyl)-4-hydroxy-N-((S)-1-(4-(4-methylthiazol-5-yl)phenyl)ethyl)pyrrolidine-2-carboxamide], the DC50 under setting [3] is less than 2.5 nM. Under setting [4], the Dmax is greater than 75%.
`Cc1ncsc1-c1ccc([C@H](C)NC(=O)[C@@H]2C[C@@H](O)CN2C(=O)[C@@H](c2cc(OCCN3C4CC3CN(CCOc3cc(N5C6CCC5CN(c5cc(-c7ccccc7O)nnc5N)C6)ccn3)C4)no2)C(C)C)cc1` [compound 132, (2S,4R)-1-((2R)-2-(3-(2-(3-(2-((4-(3-(3-amino-6-(2-hydroxyphenyl)pyridazin-4-yl)-3,8-diazabicyclo[3.2.1]octan-8-yl)pyridin-2-yl)oxy)ethyl)-3,6-diazabicyclo[3.1.1]heptan-6-yl)ethoxy)isoxazol-5-yl)-3-methylbutanoyl)-4-hydroxy-N-((S)-1-(4-(4-methylthiazol-5-yl)phenyl)ethyl)pyrrolidine-2-carboxamide]: the DC50 under setting [3] lay in the range of 2.5 to 10 nM. Also, the Dmax under setting [4] was greater than 75%.
On to `Cc1ncoc1-c1ccc([C@H](C)NC(=O)[C@@H]2C[C@@H](O)CN2C(=O)[C@H](c2cc(OCCN3CCN(CCOc4cc(N5C6CCC5CN(c5cc(-c7ccccc7O)nnc5N)C6)ccn4)CC3)no2)C(C)C)cn1` [compound 161, (2S,4R)-1-((2S)-2-(3-(2-(4-(2-((4-(3-(3-amino-6-(2-hydroxyphenyl)pyridazin-4-yl)-3,8-diazabicyclo[3.2.1]octan-8-yl)pyridin-2-yl)oxy)ethyl)piperazin-1-yl)ethoxy)isoxazol-5-yl)-3-methylbutanoyl)-4-hydroxy-N-((S)-1-(6-(4-methyloxazol-5-yl)pyridin-3-yl)ethyl)pyrrolidine-2-carboxamide], for which, under setting [3], the DC50 is greater than 30 nM. Moreover, the Dmax under setting [5] was less than 50%.
On to `Cc1ncsc1-c1ccc(CNC(=O)[C@@H]2C[C@@H](O)CN2C(=O)[C@@H](c2cc(OCCOCCOCCOc3cc(N4C5CCC4CN(c4cc(-c6ccccc6O)nnc4N)C5)ccn3)no2)C(C)C)cc1` [compound 28, (2S,4R)-1-[(2R)-2-[3-[2-(2-[2-[(4-[3-[3-amino-6-(2-hydroxyphenyl)pyridazin-4-yl]-3,8-diazabicyclo[3.2.1]octan-8-yl]pyridin-2-yl)oxy]ethoxy]ethoxy)ethoxy]-1,2-oxazol-5-yl]-3-methylbutanoyl]-4-hydroxy-N-[[4-(4-methyl-1,3-thiazol-5-yl)phenyl]methyl]pyrrolidine-2-carboxamide], for which the DC50 under setting [3] is less than 2.5 nM. Also, the Dmax under setting [4] is greater than 75%.
For `CC(=O)NCc1ncsc1-c1ccc([C@H](C)NC(=O)[C@@H]2C[C@@H](O)CN2C(=O)C(c2cc(OCCN3CCN(CCOc4cc(N5C6CCC5CN(c5cc(-c7ccccc7O)nnc5N)C6)ccn4)CC3)no2)C(C)C)cc1` (stereo partly drawn) [compound 174, (2S,4R)-N-((S)-1-(4-(4-(acetamidomethyl)thiazol-5-yl)phenyl)ethyl)-1-(2-(3-(2-(4-(2-((4-(3-(3-amino-6-(2-hydroxyphenyl)pyridazin-4-yl)-3,8-diazabicyclo[3.2.1]octan-8-yl)pyridin-2-yl)oxy)ethyl)piperazin-1-yl)ethoxy)isoxazol-5-yl)-3-methylbutanoyl)-4-hydroxypyrrolidine-2-carboxamide], under setting [3], the DC50 lay within 10 to 30 nM. Further, the Dmax under setting [5] is greater than 75%.
As to `Cc1ncsc1-c1ccc([C@H](C)NC(=O)[C@@H]2C[C@@H](O)CN2C(=O)[C@@H](c2cc(OCCN3CC4CC(C3)N4CCOc3cc(N4C5CCC4CN(c4cc(-c6ccccc6O)nnc4N)C5)ccn3)no2)C(C)C)cc1` [compound 133, (2S,4R)-1-((2R)-2-(3-(2-(6-(2-((4-(3-(3-amino-6-(2-hydroxyphenyl)pyridazin-4-yl)-3,8-diazabicyclo[3.2.1]octan-8-yl)pyridin-2-yl)oxy)ethyl)-3,6-diazabicyclo[3.1.1]heptan-3-yl)ethoxy)isoxazol-5-yl)-3-methylbutanoyl)-4-hydroxy-N-((S)-1-(4-(4-methylthiazol-5-yl)phenyl)ethyl)pyrrolidine-2-carboxamide], the DC50 under setting [3] was less than 2.5 nM. For the same compound, the Dmax under setting [4] is greater than 75%.
